According to article PMC10090446, “Population pharmacokinetic analysis and dosing optimization of polymyxin B in critically ill patients” (Frontiers in Pharmacology, 2023):
Like-named read-outs stand apart in the source and are kept apart here. Positions of bridges follow the written chain, without caps; N, C: chain ends. Non-standard residues stand in square brackets, D forms with d. Residues, ends and D or L forms follow the SMILES beside them. *: point of attachment. X1 = CC[C@H](C)CCCCC(=O)*; Dab = NCC[C@H](N)C(=O)O

Assay: Population pharmacokinetic (PPK) model, non-parametric adaptive grid (Pmetrics), critically ill patients
Type: in vivo, human
Settings: for clearance: human
From the text: We gather data from critically ill patients (≥18 years old) who were given intravenous drip polymyxin B treatment with blood concentration monitoring at the hospital from November 2021 to September 2022. The attending physician decided to administer polymyxin B. At the same time, patients who received continuous renal replacement therapy (CRRT) (n = 10) or extracorporeal membrane oxygenation (ECMO) (n = 2) at the time of blood collection were excluded. Patients’ information, including gender, age, WT, serum creatinine (Scr), CCR, ALB, APACHE-II, infection diagnosis, and pathogenic bacteria, were obtained from the electronic system for medical records. CCR was generated by adopting the Cockcroft—Gault equation with WT and age ([Cucci et al., 2022]). The Ethical Committees of the Second Affiliated Hospital of the South China University of Technology authorized the study (K-2022-020-01).
Patients were treated with polymyxin B, and plasma samples were collected ≥ 48 h after the treatment. Each patient contributed clinical samples, of which 37.5% (n = 24) were sampled with troughs (within 1 h before administration), 35.9% (n = 23) were sampled with peaks (within 1 h after the end of the infusion), and 26.6% (n = 17) were sampled at 6-8 h after the infusion. The dosing regimens of polymyxin B were a loading dose of 100 mg–150 mg and a maintenance dose of 50 mg–75 mg q12h, and the infusion duration was about 1–2 h. In preparation for analysis, samples were centrifuged for 10 min at 3000 r min^-1 after collection, and the upper plasma after centrifugation was stored at −20°C.
According to previous studies, total polymyxin B1, polymyxin B2, and polymyxin B1-Ile concentrations in human blood plasma were quantified using LC-MS/MS ([Meng et al., 2016]; [Hee et al., 2017]). The standard used in our experiments was the USP standard with the batch number of R104F0. The chromatographic column was the Kinetex C18 (3 μm × 2.1 mm×100 mm. Phenomenex). A: B mobile phase was 0.1% formic acid to acetonitrile. With changes in the linear velocity ratio, gradient elution was as follows: 15% −15% B, 0–2.0 min; 15%–10% B, 2.01–4.0 min; 10%–30% B, 4.01–5.0 min; 15% B, 5.01 min; and 15%–15% B, 5.02–10 min. The flow rate was constrained to 0.8 mL min^-1, and the column temperature was set to 40°C. The parent/daughter ion mass ratios used in the mass spectrometry were m/z 602.6/241.2 (polymyxin B1 and B1-Ile) and m/z 595.6/202.1 (polymyxin B2). Plasma samples (100 μL) were collected from centrifuged blood samples, mixed with 500 μL precipitant (acetonitrile with 6.67% formic acid) and vortexed well for 1 min. The lower limit of quantification (LLOQ) of the bioanalytical method used for quantifying polymyxin B1, B2, and B1-Ile concentrations was 0.19, 0.02 and 0.02 mg L^-1, respectively. The linear relationships of polymyxin B1, B2, and B1-Ile concentrations in the range of 0.19–24.13 mg L^-1, 0.02–2.7 mg L^-1 and 0.02–2.38 mg L^-1 were considered good (R^2 = 0.99677, R^2 = 0.99656, R^2 = 0.99484) and the accuracy was within 95.3%–105.3%, 92.2%–104.8%, and 95.8%–105.4%. […] Finally, 200 μL of the supernatant from the centrifugation of the combination at 14,000 r min^-1 for 10 min was employed to measure the amounts of polymyxin B.
In order to analyze the total concentrations of polymyxin B, Pmetrics version 1.9.7 (Laboratory of Applied Pharmacokinetics and Bioinformatics, Los Angeles, CA) was used by R version 4.1.3 ([Neely et al., 2012]). PK parameters were evaluated by a one-compartment model and a two-compartment model. The multiplicative error model (SD ×gamma), which requires the observation concentration values to be weighted by the reciprocal of the error, was used to calculate the error structure model. Gamma is the process noise that results from incorrectly specified sampling time, dosage, etc. […]

[1] = data splitting, 20% of the data
[2] = data splitting, 80% of the data
[3] = final model 6, bootstrap, median
[4] = final model 6, full data set, 22 critically ill patients, iv, mean
[5] = final model 6, full data set, median

CC[C@H](C)CCCCC(=O)N[C@@H](CCN)C(=O)N[C@H](C(=O)N[C@@H](CCN)C(=O)N[C@H]1CCNC(=O)[C@H]([C@@H](C)O)NC(=O)[C@H](CCN)NC(=O)[C@H](CCN)NC(=O)[C@H](CC(C)C)NC(=O)[C@@H](Cc2ccccc2)NC(=O)[C@H](CCN)NC1=O)[C@@H](C)O [polymyxin B] (X1-[Dab]T[Dab][Dab][Dab][dF]L[Dab][Dab]T; lactam 4-C)
Q, mean value [1]: 2.56 L/h | Vc, mean value [1]: 13.58 L | Vp, mean value [1]: 64.60 L | Q, mean value [2]: 3.44 L/h | Vc, mean value [2]: 17.82 L | Vp, mean value [2]: 40.26 L | CL, bootstrap median [3]: 1.22 L/h | Q, bootstrap median [3]: 2.31 L/h | Vc, bootstrap median [3]: 17.15 L | Vp, bootstrap median [3]: 66.34 L | Q, mean [4]: 3.04 L/h | Vc, mean [4]: 16.64 ± 12.74 L | Vp, mean [4]: 66.20 L | Q, median [5]: 2.34 L/h | Vc, median [5]: 13.52 L | Vp, median [5]: 76.53 L | clearance (plasma, iv, data splitting, 20% of the data, read-out: CL, mean value (converted)): 21.8 mL/min | clearance (plasma, iv, data splitting, 80% of the data, read-out: CL, mean value (converted)): 22.5 mL/min | clearance (plasma, iv, final model 6, full data set, 22 critically ill patients, iv, median, read-out: CL, median (converted)): 20.3 mL/min | clearance (final model 6 (two-compartment, covariates age and ALB), full data set, 22 critically ill patients, 64 samples, iv infusion, steady state, total plasma concentration, LC-MS/MS, NPAG, mean, read-out: CL, mean (converted)): 20.7 mL/min
